Read-outs that look alike come from different tables or passages of the source.
Legend:
Type in all cases: cell-based
GSK3pS21 = test: Western blot IC40 of downstream effector readout; details: 40% inhibition of GSK3pS21, Western Blot
Experimental: (§1) In total, cells were treated with 89 unique perturbations (Table 3). In paired combinations, each drug concentration was selected to inhibit the readout for the presumed target or the downstream effectors by 40% (IC40) as determined by Western Blot experiments. In single agent perturbations, each drug is applied at two different concentrations, IC40 and 2×IC40.

AKTpS473 = test: Western blot IC40 of downstream effector readout; details: 40% inhibition of AKTpS473, Western Blot
Experimental: as §1

SkMel133 cells [1] = test: Apoptotic response of melanoma cells; details: 48 hours after treatment; 3% in unperturbed cells
Experimental: Finally, the cell cycle progression and apoptotic response of melanoma cells to JQ1 were measured. JQ1 (500 nM) induces a 50% increase in cells at G1-phase compared to the unperturbed cells (FIG. 8). […] More specifically, FIG. 8 depicts cell cycle arrest response of melanoma cells to JQ1 and MEKi combination. 51% and 88% of cells are in G1 stage 24 hours after JQ1 and MEKi treatment, respectively. JQ1+MEKi combination has an increased effect on G1 cell cycle arrest (G1=92%). 39% of cells are in G1 when they are not treated with drugs (error bars in right panel: ±SE in 3 biological replicates).

SkMel133 cells [2] = test: Cell viability, resazurin assay; details: for Emax: read-out: maximal effect level (Amax, response to the drugs at highest doses)
Experimental: RAFi resistant melanoma cell line SkMel133 was used in all perturbation experiments. SkMel133 cells were perturbed with 12 targeted drugs applied as single agents or in paired combinations.
All phenotypic measurements were made in perturbation conditions identical to those in proteomic measurements. Cell viability and cell cycle progression were measured 72 hours after drug treatment using the Resazurin assay and flow cytometry analysis respectively. The percentage of cells in the G1, G2/M, and S phases and sub-G1 fraction were recorded based on the respective distribution of DNA content in each phase.

c-Myc [3] = test: Western blot of c-Myc expression; details: SkMel133, western blot, 24 hours after drug treatment
Source text: First, it was postulated whether c-Myc levels in SkMel133 cells could be targeted using JQ1. […] Therefore, total c-Myc levels are targeted using JQ1, either as a single agent or in combination with inhibitors of the RAF/MEK/ERK pathway.

BRD4 = test: Western blot of BRD4 level; details: 24 hours after JQ1 treatment
Experimental: FIGS. 6A-6E illustrate the combined targeting of c-Myc with MEK and BRAF leads to synergistic response in melanoma cells. […] The leftward shift of isocurves implies synergistic interactions between the applied perturbations. u denotes strength of in silico perturbations. […] The BRD4 level is unchanged in response to JQ1 treatment. […] C-Myc expression is targeted with BRD4 inhibitor, JQ1. […] Cell viability is measured using the resazurin assay. […] The combination index (CI) calculated using the drug dose response curves quantifies the drug interactions between JQ1, MEKi and RAFi (left panel). CI for a given level of inhibition is a measure of the fractional shift between the combination doses (C1 and C2) and the single agent's inhibitory concentration (Cx,1, Cx,2). It is formulated as CI=(C1/Cx,1)[…](C2/Cx,2). Amax is the response of melanoma cells to JQ1, MEKi and RAFi at highest doses applied (right panel). 1-Amax is the fraction of cells alive in response to highest drug dose normalized with respect to the non-drug treated condition. […] 86% of cells are in G1 state 48 hours after JQ1 treatment, while 42% of the cells are in G1 state before drug treatment (error bars: ±SEM in 3 biological replicates).

SkMel133 cells [4] = test: Cell cycle progression, flow cytometry; details: for cells in G1 stage: 24 hours after treatment, 39% when not treated
Experimental: All phenotypic measurements were made in perturbation conditions identical to those in proteomic measurements. […] The percentage of cells in the G1, G2/M, and S phases and sub-G1 fraction were recorded based on the respective distribution of DNA content in each phase.

STAT3pY705 = test: Western blot IC40 of downstream effector readout; details: 40% inhibition of STAT3pY705, Western Blot
Experimental: as §1

MAPK1pT202 = test: Western blot IC40 of downstream effector readout; details: 40% inhibition of MAPK1pT202, Western Blot
Experimental: as §1

c-Myc [5] = test: c-Myc level by reverse phase protein arrays (RPPA); details: Skmel133 cells, average of three replicates
Experimental: Proteomic response profiles to perturbations were measured using reverse phase protein arrays. The cells were lysed 24 hours after drug treatment. Three biological replicates were spotted for each sample (e.g., drug condition) on RPPA slides. Each slide was stained with the respective Ab and 138 proteomic entities (total or phosho levels) and were profiled using specific Abs with the RPPA (Table 3).
FIG. 14 depicts changes in c-Myc levels in response to perturbations in Skmel133 cells as measured in RPPA experiments. Each data point was log normalized with respect to the c-Myc level in unperturbed condition. c-Myc level was highest in the presence of CDK4i. Various drug combinations that included STAT3 and mTOR inhibitors follow CDK4i combinations. cMyc level was lowest when cells were perturbed with MEK, BRAF, SRC, PKC and HDAC inhibitors, respectively. Each data-point is the average of RPPA readouts from three replicates.

S6pS240 = test: Western blot IC40 of downstream effector readout; details: 40% inhibition of S6pS240, Western Blot
Experimental: as §1

4EBP1pS65 = test: Western blot IC40 of downstream effector readout; details: 40% inhibition of 4EBP1pS65, Western Blot
Experimental: as §1

P27/Kip1 = test: Western blot IC40 of downstream effector readout; details: IC40 on P27/Kip1 readout
Experimental: as §1

[6] = SkMel133, highest doses applied, normalized to non-drug treated condition

CC(C)(C)c1nc2c3cc[nH]c(=O)c3c3cc(F)ccc3c2[nH]1 [P6]
Dose 1 (IC40 of downstream effector readout) (GSK3pS21): 20 nM

O=c1[nH]c2ccccc2n1C1CCN(Cc2ccc(-c3nc4cc5nc[nH]c5cc4nc3-c3ccccc3)cc2)CC1 [AKTi 1/2]
Dose 1 (IC40 of downstream effector readout) (AKTpS473): 5.000 nM

Cc1sc2c(c1C)C(c1ccc(Cl)cc1)=N[C@@H](CC(=O)OC(C)(C)C)c1nnc(C)n1-2 [JQ1]
apoptosis (SkMel133 cells [1]): 11%
IC50 (SkMel133 cells [2]; SkMel133, combined with 5 nM MEK inhibitor, read-out: concentration of JQ1 reducing viability by 50%): 100 nM
maximal effect level (Amax, response to the drugs at highest doses) (SkMel133 cells [2]; [6]): 10%
IC50 (SkMel133 cells [2]; SkMel133, single agent, read-out: cell viability IC50): 200 nM
c-Myc expression (c-Myc [3]): reduced
BRD4 level (BRD4): unchanged
cells in G1 stage (SkMel133 cells [4]): 51%
cells in G1 state (SkMel133 cells [4]; 48 hours after treatment, 42% before drug treatment): 86%
increase in cells at G1-phase compared to the unperturbed cells (SkMel133 cells [4]; JQ1 500 nM): 50%

O=[N+]([O-])c1ccc2c(c1)S(=O)(=O)C=C2 [Stattic]
Dose 1 (IC40 of downstream effector readout) (STAT3pY705): 600 nM

O=C(NOC[C@H](O)CO)c1ccc(F)c(F)c1Nc1ccc(I)cc1F [PD0325901]
Emax (SkMel133 cells [2]; [6]): 13%
Dose 1 (IC40 of downstream effector readout) (MAPK1pT202): 1.5 nM
c-Myc level relative to unperturbed condition (c-Myc [5]): lowest
cells in G1 stage (SkMel133 cells [4]): 88%

FC(F)c1nc2ccccc2n1-c1nc(N2CCOCC2)nc(N2CCOCC2)n1 [ZSTK474]
Dose 1 (IC40 of downstream effector readout) (AKTpS473): 600 nM

Cn1cc(C2=C(c3cn(CCCN)c4ccccc34)C(=O)NC2=O)c2ccccc21 [RO-31-7549]
Dose 1 (IC40 of downstream effector readout) (S6pS240): 3500 nM
c-Myc level relative to unperturbed condition (c-Myc [5]): lowest

COc1ccc(C2=NC(c3ccc(Cl)cc3)C(c3ccc(Cl)cc3)N2C(=O)N2CCNC(=O)C2)c(OC(C)C)c1 (stereo not shown) [Nutlin]
Dose 1 (IC40 of downstream effector readout) (4EBP1pS65): 3,000 nM

CO[C@H]1C[C@@H]2CC[C@@H](C)[C@@](O)(O2)C(=O)C(=O)N2CCCC[C@H]2C(=O)O[C@H]([C@H](C)C[C@@H]2CC[C@@H](OC(=O)C(C)(CO)CO)[C@H](OC)C2)CC(=O)[C@H](C)/C=C(\C)[C@@H](O)[C@@H](OC)C(=O)[C@H](C)C[C@H](C)/C=C/C=C/C=C/1C [Temsirolimus]
Dose 1 (IC40 of downstream effector readout) (S6pS240): 0.3 nM

CCCS(=O)(=O)Nc1ccc(F)c(C(=O)c2c[nH]c3ncc(Cl)cc23)c1F [PLX4720]
IC50 (SkMel133 cells [2]; RAFi resistant SkMel133 cells, single agent, read-out: IC50 for single agent): > 1000 nM
IC50 (SkMel133 cells [2]; SkMel133, combined with JQ1 (120 nM), read-out: concentration of RAFi reducing cell viability by 50%): 120 nM
Emax (SkMel133 cells [2]; [6]): 12%
Dose 1 (IC40 of downstream effector readout) (MAPK1pT202): 60 nM
c-Myc level relative to unperturbed condition (c-Myc [5]): lowest

O=C(CCCCCCSc1ccc2ccccc2c1)NO [HNHA]
Dose 1 (IC40 of downstream effector readout) (P27/Kip1): 6,000 nM
c-Myc level relative to unperturbed condition (c-Myc [5]): lowest
